In patent US20210032205A1, “HETEROARYL SULFONAMIDE COMPOUND AND FORMULATION FOR CONTROLLING HARMFUL ORGANISMS” (Nippon Soda Co., Ltd., priority 2018, published 2021):

Assays:
Heterodera glycines = assay: Efficacy test against Heterodera glycines (in vitro test); format: in vivo; conditions: 72 h, second-instar larvae (L2), 3 days at 25° C., 96-well microplate, read-out: nematode mortality rate against Heterodera glycines
Experimental: (§1) A suspension containing about 50 second-instar larvae (L2) of Heterodera glycines per 0.2 mL was prepared. The compound of the present invention was dissolved in DMSO, so that a DMSO solution containing the compound at a concentration of 10,000 pm was prepared. 200 μL of the suspension mentioned above per well and 0.2 μL of the DMSO solution of the compound mentioned above per well were dispensed into each well of a 96-well microplate. The final concentration of the compound of the present invention per well was 10 ppm. The 96-well microplate was placed for 3 days at 25° C. Subsequently, mortality was investigated, and the nematode mortality rate was calculated. […] The test was repeated.

Plutella xylostella = assay: Efficacy test against Plutella xylostella (cabbage leaf dip); format: in vivo; conditions: foliar, 72 h, cabbage leaves soaked 30 seconds, second-instar larvae, 3 days after release, 25° C., read-out: mortality rate (efficacy test against Plutella xylostella; sentence prints Spodoptera litura)
Experimental: (§2) Five parts of the compound of the present invention, 93.6 parts of dimethylformamide and 1.4 parts of a polyoxyethylene alkyl aryl ether were mixed together and dissolved to obtain an emulsion (I) containing 5% of the active ingredient.
(§3) The mortality rate was calculated using the following equation.
(§4) Mortality rate (%)=(number of dead insects/number of test insects)×100
(§5) The emulsion (I) was diluted with water to achieve a concentration of the compound of the present invention of 125 ppm. Cabbage leaves were soaked in the diluted liquid for 30 seconds. These cabbage leaves were then placed in a Petri dish, and five second-instar larvae of Plutella xylostella were released into the dish. The Petri dish closed with a lid was placed in a thermostatic chamber at a temperature of 25° C. and a humidity of 60%. Mortality was investigated 3 days after larvae release, and the mortality rate was calculated. The test was repeated.

Meloidogyne incognita = assay: Efficacy test against Meloidogyne incognita (in vitro test); format: in vivo; conditions: 48 h, second-instar larvae (L2), 2 days at 15° C., 96-well microplate, read-out: nematode mortality rate against Meloidogyne incognita
Experimental: as §1, with “of Meloidogyne incognita” for “of Heterodera glycines”, “10,000 ppm” for “10,000 pm”, “and 1.0” for “and 0.2”, “was 50” for “was 10”, “for 2” for “for 3”, “at 15°” for “at 25°”

Mythimna separata = assay: Efficacy test against Mythimna separata (artificial feed); format: in vivo; conditions: second-instar larvae; 1 μl of 5% emulsion (I) in 0.8 g artificial feed; 5 days at 25° C.
Experimental: as §2
An emulsion (II) containing 0% of an active ingredient was prepared in the same method as that described above, with the exception that 5 parts of the compound of the present invention was not mixed and dissolved.
as §3, §4
First, 0.8 g of an artificial feed (Insecta LFS, manufactured by Nosan Corporation) and 1 μl of the emulsion (I) were mixed thoroughly, and 0.2 g of the resulting mixture was placed in each of the treatment areas of a plastic test container (volume: 1.4 ml) to complete preparation of a test feed. Two second-instar larvae of Mythimna separata were inoculated into each treatment area, and the plastic test container was sealed with a plastic lid. The sealed container was placed for 5 days in a thermostatic chamber at 25° C. Subsequently, the mortality rate and the amount of feed consumed were checked. In addition, a test for a control area was carried out under the same conditions as those described above, with the exception of replacing the emulsion (I) with the emulsion (II). The test was repeated in both cases.

Spodoptera litura = assay: Efficacy test against Spodoptera litura (cabbage leaf dip); format: in vivo; conditions: foliar, 144 h, cabbage leaves soaked 30 seconds, second-instar larvae, 6 days after release, 25° C., read-out: mortality rate against Spodoptera litura
Experimental: as §2, §3, §4
as §5, with “of Spodoptera litura” for “of Plutella xylostella”, “investigated 6” for “investigated 3”

Caenorhabditis elegans = assay: Efficacy test against Caenorhabditis elegans (in vitro test); format: in vivo; conditions: 48 h, mixed instars, 2 days at 25° C., 96-well microplate, read-out: nematode mortality rate against Caenorhabditis elegans
Experimental: as §1, with “50 mixed instars” for “50 second-instar larvae (L2)”, “of Caenorhabditis elegans” for “of Heterodera glycines”, “and 1.0” for “and 0.2”, “was 50” for “was 10”, “for 2” for “for 3”

For `O=C(Nc1ccc(C(F)(F)F)cc1)c1cnc(Cl)cc1NS(=O)(=O)C(F)(F)F` [Compound A-1, 6-chloro-N-[4-(trifluoromethyl)phenyl]-4-(trifluoromethylsulfonylamino)pyridine-3-carboxamide], the mortality at 10 ppm (Heterodera glycines) was ≥ 80%, the mortality at 125 ppm (Plutella xylostella) was ≥ 80% and the mortality at 50 ppm (Meloidogyne incognita) was ≥ 80%. For the same compound, the “mortality rate against Mythimna separata” value (Mythimna separata) was 100%, the mortality at 125 ppm (Spodoptera litura) was ≥ 80% and the mortality at 50 ppm (Caenorhabditis elegans) was ≥ 80%.
In the case of `O=C(Nc1ccc(C(F)(F)F)cc1)c1ccc(Cl)nc1NS(=O)(=O)C(F)(F)F` [Compound A-4], the mortality at 125 ppm (Plutella xylostella) is reported as ≥ 80%, the mortality at 50 ppm (Meloidogyne incognita) is reported as ≥ 80% and the “mortality rate against Mythimna separata” value (Mythimna separata) is reported as 100%. The mortality at 125 ppm (Spodoptera litura) was ≥ 80%.
With `O=C(Nc1ccc(C(F)(F)F)cc1)c1ncc(C(F)(F)F)cc1NS(=O)(=O)C(F)(F)F` [Compound A-2] the mortality at 125 ppm (Plutella xylostella) was ≥ 80%, the mortality at 50 ppm (Meloidogyne incognita) was ≥ 80% and the “mortality rate against Mythimna separata” value (Mythimna separata) was 100%. For the same compound, the mortality at 125 ppm (Spodoptera litura) was ≥ 80%.
For `O=C(Nc1ccc(C(F)(F)F)cc1)c1cc(Cl)ncc1NS(=O)(=O)C(F)(F)F` [Compound A-5], the mortality at 10 ppm (Heterodera glycines) was ≥ 80%, the mortality at 50 ppm (Meloidogyne incognita) was ≥ 80% and the “mortality rate against Mythimna separata” value (Mythimna separata) was 100%. The mortality at 50 ppm (Caenorhabditis elegans) was ≥ 80%.
With `COC(=O)c1cc(F)c(F)cc1NC(=O)c1ncc(C(F)(F)F)cc1NS(=O)(=O)C(F)(F)F` [Compound A-3] the melting point was 270 °C.
For `O=C(Nc1ccc(F)c(F)c1)c1cnc(Cl)cc1NS(=O)(=O)C(F)(F)F` [Compound A-7], the mortality at 10 ppm (Heterodera glycines) was ≥ 80%, the mortality at 50 ppm (Meloidogyne incognita) was ≥ 80% and the “mortality rate against Mythimna separata” value (Mythimna separata) was 100%. The mortality at 50 ppm (Caenorhabditis elegans) was ≥ 80%.
In the case of `O=C(Nc1cc(F)c(F)cc1-n1cccn1)c1sc(Cl)cc1NS(=O)(=O)C(F)(F)F` [Compound A-6], the mortality at 50 ppm (Meloidogyne incognita) is reported as ≥ 80% and the “mortality rate against Mythimna separata” value (Mythimna separata) is reported as 100%.
